Where two headings read alike, the source gives them in different places. Numbered stars: 1 amine (or outer) side, 2 acyl side, 3 side chain; on linkers, the order of the positions; unused ones are H or OH. Square brackets hold non-standard residues; d marks the D form. Side chains are listed from the residue outwards. Peptide text beside a SMILES is read from it. * marks the point of attachment. ξ: configuration not given here. DOTA(Lu)NH(CH2)6NHCOCH2 = O=C(CN1CCN2CCN3CCN(CC1)CC(=O)[O][Lu]([O]C(=O)C2)[O]C(=O)C3)NCCCCCCNC(=O)C*; X6 = O=C(CN1CCN2CCN3CCN(CC1)CC(=O)[O][Lu]([O]C(=O)C2)[O]C(=O)C3)NCCOCCOCCOCCNC(=O)C*; X14 = O=C(CN1CCN2CCN3CCN(CC1)CC(=O)[O][Lu]([O]C(=O)C2)[O]C(=O)C3)NCC1CCC(C(=O)*)CC1; DOTA(Lu) = O=C1CN2CCN3CCN(CC(=O)*)CCN(CC2)CC(=O)[O][Lu]([O]1)[O]C(=O)C3; X3 = O=C(O)CN1CCN(CC(=O)O)CCN(CC(=O)NCCCCCCNC(=O)C*)CCN(CC(=O)O)CC1; Ala(piperidin-4-yl) = O=C([C@H](CC1CCN([*:3])CC1)N[*:1])[*:2]; DOTA = O=C(O)CN1CCN(CC(=O)O)CCN(CC(=O)*)CCN(CC(=O)O)CC1; dTrp(βS-Me) = C[C@@H](c1c[nH]c2ccccc12)[C@@H](N)C(=O)O; βMeTrp(2S,3R) = C[C@H](c1c[nH]c2ccccc12)[C@H](N)C(=O)O; dTrp(4-Me) = Cc1cccc2[nH]cc(C[C@@H](N)C(=O)O)c12; dTrp(6-F) = N[C@H](Cc1c[nH]c2cc(F)ccc12)C(=O)O; Phe(4-CH2NH2) = NCc1ccc(C[C@H](N)C(=O)O)cc1; Lys(5ξ-OH) = NCC(O)CC[C@H](N)C(=O)O; Ethylenediamine = C(CN[*:2])N[*:1]; Hyp = O=C(O)[C@@H]1C[C@@H](O)CN1; 3Pal = N[C@@H](Cc1cccnc1)C(=O)O; 4Pal = N[C@@H](Cc1ccncc1)C(=O)O; Cha = N[C@@H](CC1CCCCC1)C(=O)O; Lys(Me) = CNCCCC[C@H](N)C(=O)O; NMehCys = CN[C@@H](CCS)C(=O)O; NMeK = CN[C@@H](CCCCN)C(=O)O; CO = O=C([*:1])[*:2]; Bn = c1ccc(C*)cc1
Target: SSTR2 (Homo sapiens, UniProt P30874)
Assay: SSTR binding affinity by radioligand binding competition assay ([125I]-Tyr11-Somatostatin, membrane extracts)
Procedure: Macrocyclic peptides in this invention were tested for binding to SSTR protein by a radioligand binding competition assay. For radioligand binding assay, competition binding is performed in duplicate in the wells of a 96 well plate containing binding buffer (HEPES 25 mM pH 7.4, MgCl2 5 mM, CaCl2 1 mM, BSA 0.5%, Saponine 10 μg/ml)), membrane extracts (0.6 μg protein/well), radiotracer ([125I]-Tyr11-Somatostatin, Perkin Elmer NEX389) and test compound. Nonspecific binding is determined by co-incubation with 200-fold excess of cold competitor (SST28). The samples are incubated in a final volume of 0.1 ml for 60 min at room temperature and then filtered over UniFilter-96 GF/C (Revvity 6055690) filter plates. Filters are washed six times with 0.5 ml of ice-cold washing buffer (HEPES 25 mM pH 7.4, MgCl2 5 mM, CaCl2 1 mM) and 50 μl of Microscint 20 (Packard) are added in each well. The plates are incubated 15 min on an orbital shaker and then counted with a TopCount™ for 1 min/well. For IC50 to Ki determination, the Cheng Prusoff equation is used: Ki=IC50/(1+ [tracer]/Kd). [Tracer] is 0.1 nM as mentioned above.

[1] = radioligand competition, [125I]-Tyr11-Somatostatin 0.1 nM, membrane extracts, Ki from IC50 by Cheng Prusoff, read-out: SSTR2 Ki
[2] = read-out: SSTR2 Ki, radioligand competition, [125I]-Tyr11-Somatostatin 0.1 nM, membrane extracts, Ki from IC50 by Cheng Prusoff
[3] = SSTR2 Ki, radioligand competition, [125I]-Tyr11-Somatostatin 0.1 nM, membrane extracts, Ki from IC50 by Cheng Prusoff

SSTR2, sequence (P30874 whole entry): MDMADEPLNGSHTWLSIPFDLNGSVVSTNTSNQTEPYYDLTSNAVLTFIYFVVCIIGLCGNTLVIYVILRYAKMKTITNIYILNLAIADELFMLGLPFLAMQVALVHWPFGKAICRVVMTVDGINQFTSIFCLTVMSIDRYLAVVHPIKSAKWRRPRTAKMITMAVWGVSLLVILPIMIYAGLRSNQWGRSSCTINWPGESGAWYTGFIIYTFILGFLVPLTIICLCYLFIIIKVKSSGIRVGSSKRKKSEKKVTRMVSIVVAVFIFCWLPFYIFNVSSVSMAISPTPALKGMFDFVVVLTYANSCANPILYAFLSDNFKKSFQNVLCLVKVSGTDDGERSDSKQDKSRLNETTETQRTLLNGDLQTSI

SMILES	Ki [1]	further results
C[C@@H](O)[C@@H]1NC(=O)[C@H](CC2CCNCC2)NC(=O)[C@@H]([C@@H](C)c2c[nH]c3ccccc23)NC(=O)[C@H](Cc2ccc(O)cc2)NC(=O)[C@H](CCSCC(=O)NCCOCCOCCOCCNC(=O)CN2CCN3CCN4CCN(CC2)CC(=O)[O][Lu]([O]C(=O)C3)[O]C(=O)C4)N(C)C(=O)[C@H](Cc2ccccc2)NC1=O [RB-0005994] (cyclo(F[NMehCys](X6)Y[dTrp(βS-Me)][Ala(piperidin-4-yl)]T))	< 1 nM	
C[C@@H](O)[C@@H]1NC(=O)[C@H](CCCCN)NC(=O)[C@@H](Cc2c[nH]c3cc(F)ccc23)NC(=O)[C@H](Cc2ccc(O)cc2)NC(=O)[C@H](CCSCC(=O)NCCCCCCNC(=O)CN2CCN3CCN4CCN(CC2)CC(=O)[O][Lu]([O]C(=O)C3)[O]C(=O)C4)N(C)C(=O)[C@H](Cc2ccccc2)NC1=O [RB-0003309] (cyclo(F[NMehCys](DOTA(Lu)NH(CH2)6NHCOCH2)Y[dTrp(6-F)]KT))	< 1 nM	
C[C@@H](O)[C@@H]1NC(=O)[C@H](CCCCN)NC(=O)[C@@H](Cc2c[nH]c3ccccc23)NC(=O)[C@H](Cc2cccnc2)NC(=O)[C@H](CCSCC(=O)NCCCCCCNC(=O)CN2CCN3CCN4CCN(CC2)CC(=O)[O][Lu]([O]C(=O)C3)[O]C(=O)C4)N(C)C(=O)[C@H](Cc2ccccc2)NC1=O [RB-0003000] (cyclo([3Pal][dW]KTF[NMehCys](DOTA(Lu)NH(CH2)6NHCOCH2)))	< 1 nM	
C[C@@H](O)[C@@H]1NC(=O)[C@H](CCC(O)CN)NC(=O)[C@@H](Cc2c[nH]c3ccccc23)NC(=O)[C@H](Cc2ccc(O)cc2)NC(=O)[C@H](CCSCC(=O)NCCCCCCNC(=O)CN2CCN3CCN4CCN(CC2)CC(=O)[O][Lu]([O]C(=O)C3)[O]C(=O)C4)N(C)C(=O)[C@H](Cc2ccccc2)NC1=O (some centres unmarked) [RB-0006317] (cyclo(F[NMehCys](DOTA(Lu)NH(CH2)6NHCOCH2)Y[dW][Lys(5ξ-OH)]T))	< 1 nM	
C[C@@H](O)[C@@H]1NC(=O)[C@H](CCCCN)NC(=O)[C@@H](Cc2c[nH]c3ccccc23)NC(=O)[C@H](Cc2ccc(O)cc2)NC(=O)[C@H](CCCCC(=O)NCCCCCCNC(=O)CN2CCN(CC(=O)O)CCN(CC(=O)O)CCN(CC(=O)O)CC2)N(C)C(=O)[C@H](Cc2ccccc2)NC1=O [RB-0003055]		Ki [2]: < 1 nM
C[C@@H](O)[C@@H]1NC(=O)[C@H](CCCCN)NC(=O)[C@@H]([C@@H](C)c2c[nH]c3ccccc23)NC(=O)[C@H](Cc2ccncc2)NC(=O)[C@H](CCSCC(=O)NCCCCCCNC(=O)CN2CCN(CC(=O)O)CCN(CC(=O)O)CCN(CC(=O)O)CC2)N(C)C(=O)[C@H](Cc2cccnc2)NC1=O [RB-0003407] (cyclo([3Pal][NMehCys](X3)[4Pal][dTrp(βS-Me)]KT))		Ki (read-out: SSTR2 Ki): 1 to 3.33 nM
CNCCCC[C@@H]1NC(=O)[C@@H]([C@@H](C)c2c[nH]c3ccccc23)NC(=O)[C@H](Cc2ccc(O)cc2)NC(=O)[C@H](CCCCNC(=O)CN2CCN3CCN4CCN(CC2)CC(=O)[O][Lu]([O]C(=O)C3)[O]C(=O)C4)N(C)C(=O)[C@H](Cc2ccccc2)NC(=O)[C@H]([C@@H](C)O)NC1=O [RB-0006174] (cyclo(F[NMeK](DOTA(Lu))Y[dTrp(βS-Me)][Lys(Me)]T))	< 1 nM	
C[C@@H](O)[C@@H]1NC(=O)[C@H](CC2CCNCC2)NC(=O)[C@H](Cc2c[nH]c3ccccc23)NC(=O)[C@H](Cc2ccc(O)cc2)NC(=O)[C@H](CCSCC(=O)NCCOCCOCCOCCNC(=O)CN2CCN3CCN4CCN(CC2)CC(=O)[O][Lu]([O]C(=O)C3)[O]C(=O)C4)N(C)C(=O)[C@H](Cc2ccccc2)NC1=O [RB-0005992] (cyclo(F[NMehCys](X6)YW[Ala(piperidin-4-yl)]T))	3.33 to 10 nM	
C[C@@H](O)[C@@H]1NC(=O)[C@H](CC2CCNCC2)NC(=O)[C@@H]([C@@H](C)c2c[nH]c3ccccc23)NC(=O)[C@H](Cc2ccc(O)cc2)NC(=O)[C@H](CCCCNC(=O)CNC(=O)CN2CCN3CCN4CCN(CC2)CC(=O)[O][Lu]([O]C(=O)C3)[O]C(=O)C4)N(C)C(=O)[C@H](Cc2ccccc2)NC1=O [RB-0006397] (cyclo(F[NMeK]([Gly-DOTA(Lu)])Y[dTrp(βS-Me)][Ala(piperidin-4-yl)]T))	1 to 3.33 nM	
C[C@@H](O)[C@@H]1NC(=O)[C@H](CCCCN)NC(=O)[C@@H](Cc2c[nH]c3ccccc23)NC(=O)[C@H](Cc2ccc(O)cc2)NC(=O)[C@H](CCCCNC(=O)CCCCC[C@H](NC(=O)CN2CCN3CCN4CCN(CC2)CC(=O)[O][Lu]([O]C(=O)C3)[O]C(=O)C4)C(=O)O)N(C)C(=O)[C@H](Cc2ccccc2)NC1=O [RB-0003298]		Ki [3]: 3.33 to 10 nM
C[C@@H]1NC(=O)[C@H](CCCCN)NC(=O)[C@@H](Cc2c[nH]c3ccccc23)NC(=O)[C@H](Cc2ccc(O)cc2)NC(=O)[C@H](CCSCC(=O)NCCCCCCNC(=O)CN2CCN3CCN4CCN(CC2)CC(=O)[O][Lu]([O]C(=O)C3)[O]C(=O)C4)N(C)C(=O)[C@H](Cc2ccccc2)NC1=O [RB-0005744] (cyclo(AF[NMehCys](DOTA(Lu)NH(CH2)6NHCOCH2)Y[dW]K))	< 1 nM	
C[C@H](c1c[nH]c2ccccc12)[C@@H]1NC(=O)[C@H](Cc2ccc(O)cc2)NC(=O)[C@H](CCSCC(=O)NCCCCCCNC(=O)CN2CCN3CCN4CCN(CC2)CC(=O)[O][Lu]([O]C(=O)C3)[O]C(=O)C4)N(C)C(=O)[C@H](Cc2ccccc2)NC(=O)[C@H]([C@@H](C)O)NC(=O)[C@H](CCCCN)NC1=O [RB-0006019] (cyclo(F[NMehCys](DOTA(Lu)NH(CH2)6NHCOCH2)Y[βMeTrp(2S,3R)]KT))	< 1 nM	
C[C@@H](O)[C@@H]1NC(=O)[C@H](CC2CCNCC2)NC(=O)[C@@H]([C@@H](C)c2c[nH]c3ccccc23)NC(=O)[C@H](Cc2ccc(O)cc2)NC(=O)[C@H](CCCCNC(=O)C2CCC(CNC(=O)CN3CCN4CCN5CCN(CC3)CC(=O)[O][Lu]([O]C(=O)C4)[O]C(=O)C5)CC2)N(C)C(=O)[C@H](Cc2ccccc2)NC1=O (some centres unmarked) [RB-0006464] (cyclo(F[NMeK](X14)Y[dTrp(βS-Me)][Ala(piperidin-4-yl)]T))	1 to 3.33 nM	
Cc1cccc2[nH]cc(C[C@H]3NC(=O)[C@H](Cc4ccc(O)cc4)NC(=O)[C@H](CCSCC(=O)NCCCCCCNC(=O)CN4CCN5CCN6CCN(CC4)CC(=O)[O][Lu]([O]C(=O)C5)[O]C(=O)C6)N(C)C(=O)[C@H](Cc4ccccc4)NC(=O)[C@H]([C@@H](C)O)NC(=O)[C@H](CC4CCNCC4)NC3=O)c12 [RB-0006073] (cyclo(F[NMehCys](DOTA(Lu)NH(CH2)6NHCOCH2)Y[dTrp(4-Me)][Ala(piperidin-4-yl)]T))	3.33 to 10 nM	
C[C@@H](O)[C@@H]1NC(=O)[C@H](CC2CCNCC2)NC(=O)[C@@H]([C@@H](C)c2c[nH]c3ccccc23)NC(=O)[C@H](Cc2ccc(O)cc2)NC(=O)[C@H](CCCCNC(=O)CN2CCN3CCN4CCN(CC2)CC(=O)[O][Lu]([O]C(=O)C3)[O]C(=O)C4)N(C)C(=O)[C@H](CC2CCCCC2)NC1=O [RB-0006162] (cyclo([Cha][NMeK](DOTA(Lu))Y[dTrp(βS-Me)][Ala(piperidin-4-yl)]T))	1 to 3.33 nM	
C[C@@H](c1c[nH]c2ccccc12)[C@H]1NC(=O)[C@H](Cc2ccc(O)cc2)NC(=O)[C@@H]2C[C@@H](OC(=O)NCCNC(=O)CN3CCN(CC(=O)O)CCN(CC(=O)O)CCN(CC(=O)O)CC3)CN2C(=O)[C@H](Cc2ccccc2)NC(=O)[C@H](Cc2ccc(OCc3ccccc3)cc2)NC(=O)[C@H](CC2CCNCC2)NC1=O [RB-0006393] (cyclo(F[Hyp]([CO-Ethylenediamine-DOTA])Y[dTrp(βS-Me)][Ala(piperidin-4-yl)]Y(Bn)))		Ki [2]: < 1 nM
C[C@@H](O)[C@@H]1NC(=O)[C@H](Cc2ccc(CN)cc2)NC(=O)[C@@H]([C@@H](C)c2c[nH]c3ccccc23)NC(=O)[C@H](Cc2ccc(O)cc2)NC(=O)[C@H](CCSCC(=O)NCCCCCCNC(=O)CN2CCN3CCN4CCN(CC2)CC(=O)[O][Lu]([O]C(=O)C3)[O]C(=O)C4)N(C)C(=O)[C@H](Cc2ccccc2)NC1=O [RB-0006009] (cyclo(F[NMehCys](DOTA(Lu)NH(CH2)6NHCOCH2)Y[dTrp(βS-Me)][Phe(4-CH2NH2)]T))	1 to 3.33 nM	
CC(C)[C@@H]1NC(=O)[C@H](CCCCN)NC(=O)[C@@H](Cc2c[nH]c3ccccc23)NC(=O)[C@H](Cc2ccc(O)c(O)c2)NC(=O)[C@H](C)N(C)C(=O)[C@H](Cc2ccccc2)NC1=O [RB-0002595]		Ki (read-out: SSTR2 Ki): < 1 nM
C[C@@H](O)[C@@H]1NC(=O)[C@H](CCC(O)CN)NC(=O)[C@H](Cc2c[nH]c3ccccc23)NC(=O)[C@H](Cc2ccc(O)cc2)NC(=O)[C@H](CCSCC(=O)NCCCCCCNC(=O)CN2CCN3CCN4CCN(CC2)CC(=O)[O][Lu]([O]C(=O)C3)[O]C(=O)C4)N(C)C(=O)[C@H](Cc2ccccc2)NC1=O (some centres unmarked) [RB-0006385] (cyclo(F[NMehCys](DOTA(Lu)NH(CH2)6NHCOCH2)YW[Lys(5ξ-OH)]T))	< 1 nM	
C[C@@H](O)[C@@H]1NC(=O)[C@H](CCCCN)NC(=O)[C@H](Cc2c[nH]c3ccccc23)NC(=O)[C@H](Cc2ccc(O)cc2)NC(=O)[C@H](CCSCC(=O)NCCCCCCNC(=O)CN2CCN3CCN4CCN(CC2)CC(=O)[O][Lu]([O]C(=O)C3)[O]C(=O)C4)N(C)C(=O)[C@H](Cc2ccccc2)NC1=O [RB-0005907]		Ki [3]: 3.33 to 10 nM
